Laboratory results as given in patent publication US10005767B2, “Compositions and methods for inhibition of the JAK pathway” (Rigel Pharmaceuticals, Inc., priority 2009, dated 2018).

Test system: human primary T-cells, IL-2 stimulated proliferation (JAK-1 and JAK-3 dependent; reported as JAK3 activity)
Test: Human primary T-cell proliferation stimulated by IL-2 (Example 3)
Format: cell-based
Conditions: tested under conditions described in Example 3 (IL-2 stimulated human primary T-cell proliferation); read-out: ability to inhibit JAK3 activity, IC50 range (Table V)
Method in brief: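 Peripheral-blood human T-cells pre-activated via TCR/CD28, IL-2-starved overnight, then cultured 72 h at 37 °C with compound in Yssel's medium containing IL-2 (80 U/mL in cell suspension). Proliferation read as viable-cell ATP by CellTiter-Glo luminescence; reduction versus control taken as JAK pathway inhibition.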

`Cc1cnc(Nc2ccc(N3CCSCC3)c(C#N)c2)nc1Nc1ccc2oc(=O)[nH]c2c1` [Compound I-339, N2-(3-cyano-4-thiomorpholino)phenyl-5-methyl-N4-(2-oxo-2,3-dihydro-1,3-benzoxazol-5-yl)-2,4-pyrimidinediamine] and `Cc1cnc(Nc2ccc(N3CCN(C)CC3)c(C#N)c2)nc1Nc1ccc2oc(=O)[nH]c2c1` [Compound I-341, N2-[3-cyano-4-(4-methylpiperazino)]phenyl-5-methyl-N4-(2-oxo-2,3-dihydro-1,3-benzoxazol-5-yl)-2,4-pyrimidinediamine] cannot be ordered by IC50: < 500 nM for the first, < 500 nM for the second.

`COc1cc(Nc2ncc(C)c(Nc3ccc4oc(=O)[nH]c4c3)n2)ccc1N1CCN(C)CC1` [Compound I-340, N2-[3-methoxy-4-(4-methylpiperazino)]phenyl-5-methyl-N4-(2-oxo-2,3-dihydro-1,3-benzoxazol-5-yl)-2,4-pyrimidinediamine] and `COc1cc(Nc2ncc(C)c(Nc3ccc4oc(=O)[nH]c4c3)n2)ccc1C` [Compound I-351, N2-(3-methoxy-4-methyl)phenyl-5-methyl-N4-(2-oxo-2,3-dihydro-1,3-benzoxazol-5-yl)-2,4-pyrimidinediamine] cannot be ordered by IC50: < 500 nM for the first, < 500 nM for the second.

`Cc1cnc(Nc2cccc(OC(C)(C)C#N)c2)nc1Nc1ccc2oc(=O)[nH]c2c1` [Compound I-342, N2-[3-(1-cyano-1-methyl)ethoxy]phenyl-5-methyl-N4-(2-oxo-2,3-dihydro-1,3-benzoxazol-5-yl)-2,4-pyrimidinediamine] and `Cc1cnc(Nc2cccc(F)c2)nc1Nc1ccc2oc(=O)[nH]c2c1` [Compound I-368, N2-(3-fluoro)phenyl-5-methyl-N4-(2-oxo-2,3-dihydro-1,3-benzoxazol-5-yl)-2,4-pyrimidinediamine] cannot be ordered by IC50: < 500 nM for the first, < 500 nM for the second.

`CC(=O)N1CCN(c2ccc(Nc3ncc(C)c(Nc4ccc5oc(=O)[nH]c5c4)n3)cc2)CC1` [Compound I-343, N2-[4-(4-acetyl)piperazino]phenyl-5-methyl-N4-(2-oxo-2,3-dihydro-1,3-benzoxazol-5-yl)-2,4-pyrimidinediamine] and `CCOC(=O)N1CCN(c2ccc(Nc3ncc(C)c(Nc4ccc5oc(=O)[nH]c5c4)n3)cc2)CC1` [Compound I-344, N2-[4-(4-ethoxycarbonyl)piperazino]phenyl-5-methyl-N4-(2-oxo-2,3-dihydro-1,3-benzoxazol-5-yl)-2,4-pyrimidinediamine] cannot be ordered by IC50: < 500 nM for the first, < 500 nM for the second.

`CC(=O)N1CCN(c2cccc(Nc3ncc(C)c(Nc4ccc5oc(=O)[nH]c5c4)n3)c2)CC1` [Compound I-345, N2-[3-(4-acetyl)piperazino]phenyl-5-methyl-N4-(2-oxo-2,3-dihydro-1,3-benzoxazol-5-yl)-2,4-pyrimidinediamine] and `CCOC(=O)N1CCN(c2cccc(Nc3ncc(C)c(Nc4ccc5oc(=O)[nH]c5c4)n3)c2)CC1` [Compound I-346, N2-[3-(4-ethoxycarbonyl)piperazino]phenyl-5-methyl-N4-(2-oxo-2,3-dihydro-1,3-benzoxazol-5-yl)-2,4-pyrimidinediamine] cannot be ordered by IC50: < 500 nM for the first, < 500 nM for the second.

`Cc1cnc(Nc2ccc(OC(F)F)c(F)c2)nc1Nc1ccc2oc(=O)[nH]c2c1` [Compound I-347, N2-(4-difluoromethoxy-3-fluoro)phenyl-5-methyl-N4-(2-oxo-2,3-dihydro-1,3-benzoxazol-5-yl)-2,4-pyrimidinediamine] and `COc1ccc(Nc2ncc(C)c(Nc3ccc4oc(=O)[nH]c4c3)n2)cc1F` [Compound I-350, N2-(3-fluoro-4-methoxy)phenyl-5-methyl-N4-(2-oxo-2,3-dihydro-1,3-benzoxazol-5-yl)-2,4-pyrimidinediamine] cannot be ordered by IC50: < 500 nM for the first, < 500 nM for the second.

`Cc1cnc(Nc2cc(Cl)c(OC(F)F)c(Cl)c2)nc1Nc1ccc2oc(=O)[nH]c2c1` [Compound I-348, N2-(3,5-dichloro-4-difluoromethoxy)phenyl-5-methyl-N4-(2-oxo-2,3-dihydro-1,3-benzoxazol-5-yl)-2,4-pyrimidinediamine] and `Cc1cnc(Nc2cc(OC(F)F)cc(C(F)(F)F)c2)nc1Nc1ccc2oc(=O)[nH]c2c1` [Compound I-353, N2-(3-difluoromethoxy-5-trifluoromethyl)phenyl-5-methyl-N4-(2-oxo-2,3-dihydro-1,3-benzoxazol-5-yl)-2,4-pyrimidinediamine] cannot be ordered by IC50: < 500 nM for the first, < 500 nM for the second.

`COc1cc(F)cc(Nc2ncc(C)c(Nc3ccc4oc(=O)[nH]c4c3)n2)c1` [Compound I-352, N2-(3-fluoro-5-methoxy)phenyl-5-methyl-N4-(2-oxo-2,3-dihydro-1,3-benzoxazol-5-yl)-2,4-pyrimidinediamine] and `Cc1cnc(Nc2cc(F)cc(F)c2)nc1Nc1ccc2oc(=O)[nH]c2c1` [Compound I-359, N2-(3,5-difluoro)phenyl-5-methyl-N4-(2-oxo-2,3-dihydro-1,3-benzoxazol-5-yl)-2,4-pyrimidinediamine] cannot be ordered by IC50: < 500 nM for the first, < 500 nM for the second.

`COc1cc(Nc2ncc(C)c(Nc3ccc4oc(=O)[nH]c4c3)n2)ccc1C(F)(F)F` [Compound I-354, N2-(3-methoxy-4-trifluoromethyl)phenyl-5-methyl-N4-(2-oxo-2,3-dihydro-1,3-benzoxazol-5-yl)-2,4-pyrimidinediamine] and `Cc1cnc(Nc2ccc(F)c(C(F)(F)F)c2)nc1Nc1ccc2oc(=O)[nH]c2c1` [Compound I-361, N2-(4-fluoro-3-trifluoromethyl)phenyl-5-methyl-N4-(2-oxo-2,3-dihydro-1,3-benzoxazol-5-yl)-2,4-pyrimidinediamine] cannot be ordered by IC50: < 500 nM for the first, < 500 nM for the second.

Compared with `Cc1cnc(Nc2cc(C(C)(C)C)cc(C(C)(C)C)c2)nc1Nc1ccc2oc(=O)[nH]c2c1` [Compound I-355, N2-(3,5-di-tert-butyl)phenyl-5-methyl-N4-(2-oxo-2,3-dihydro-1,3-benzoxazol-5-yl)-2,4-pyrimidinediamine], `Cc1cnc(Nc2cc(F)cc(C(F)(F)F)c2)nc1Nc1ccc2oc(=O)[nH]c2c1` [Compound I-360, N2-(3-fluoro-5-trifluoromethyl)phenyl-5-methyl-N4-(2-oxo-2,3-dihydro-1,3-benzoxazol-5-yl)-2,4-pyrimidinediamine] is lower in IC50: 500 to 5000 nM for the first, < 500 nM for the second. The second is the more potent here.

Compared with `COc1cc(Nc2ncc(C)c(Nc3ccc4oc(=O)n(COP(=O)(OC(C)(C)C)OC(C)(C)C)c4c3)n2)cc(C(F)(F)F)c1` [Compound I-356, N4-{3-[bis(1,1-dimethylethoxy)]phosphinyloxymethyl-2-oxo-2,3-dihydro-1,3-benzoxazol-5-yl}-N2-(3-methoxy-5-trifluoromethyl)phenyl-5-methyl-2,4-pyrimidinediamine], `COc1cc(Nc2ncc(C)c(Nc3ccc4oc(=O)n(COP(=O)(O)O)c4c3)n2)cc(C(F)(F)F)c1` [Compound I-357, N2-(3-methoxy-5-trifluoromethyl)phenyl-5-methyl-N4-[3-(phosphonooxy)methyl-2-oxo-2,3-dihydro-1,3-benzoxazol-5-yl]-2,4-pyrimidinediamine] is lower in IC50: 5000 to 10000 nM for the first, 500 to 5000 nM for the second.

`Cc1cc(Nc2ncc(C)c(Nc3ccc4oc(=O)[nH]c4c3)n2)ccc1F` [Compound I-362, N2-(4-fluoro-3-methyl)phenyl-5-methyl-N4-(2-oxo-2,3-dihydro-1,3-benzoxazol-5-yl)-2,4-pyrimidinediamine] and `Cc1ccc(Nc2ncc(C)c(Nc3ccc4oc(=O)[nH]c4c3)n2)cc1F` [Compound I-363, N2-(3-fluoro-4-methyl)phenyl-5-methyl-N4-(2-oxo-2,3-dihydro-1,3-benzoxazol-5-yl)-2,4-pyrimidinediamine] cannot be ordered by IC50: < 500 nM for the first, < 500 nM for the second.

`Cc1ccc(Nc2ncc(C)c(Nc3ccc4oc(=O)[nH]c4c3)n2)cc1Cl` [Compound I-364, N2-(3-chloro-4-methyl)phenyl-5-methyl-N4-(2-oxo-2,3-dihydro-1,3-benzoxazol-5-yl)-2,4-pyrimidinediamine] and `Cc1cnc(Nc2ccc(OC(F)(F)F)c(Cl)c2)nc1Nc1ccc2oc(=O)[nH]c2c1` [Compound I-366, N2-(3-chloro-4-trifluoromethoxy)phenyl-5-methyl-N4-(2-oxo-2,3-dihydro-1,3-benzoxazol-5-yl)-2,4-pyrimidinediamine] cannot be ordered by IC50: < 500 nM for the first, < 500 nM for the second.

`Cc1cnc(Nc2cc(C)c(C)c(C)c2)nc1Nc1ccc2oc(=O)[nH]c2c1` [Compound I-365, N2-(3,4,5-trimethyl)phenyl-5-methyl-N4-(2-oxo-2,3-dihydro-1,3-benzoxazol-5-yl)-2,4-pyrimidinediamine] and `COc1c(C)cc(Nc2ncc(C)c(Nc3ccc4oc(=O)[nH]c4c3)n2)cc1C` [Compound I-369, N2-(3,5-dimethyl-4-methoxy)phenyl-5-methyl-N4-(2-oxo-2,3-dihydro-1,3-benzoxazol-5-yl)-2,4-pyrimidinediamine] cannot be ordered by IC50: < 500 nM for the first, < 500 nM for the second.

`Cc1cnc(Nc2ccc(SC(F)(F)F)cc2)nc1Nc1ccc2oc(=O)[nH]c2c1` [Compound I-367, N2-(4-trifluoromethylthio)phenyl-5-methyl-N4-(2-oxo-2,3-dihydro-1,3-benzoxazol-5-yl)-2,4-pyrimidinediamine] and `Cc1cnc(Nc2cc(C(N)=O)cc(C(F)(F)F)c2)nc1Nc1ccc2oc(=O)[nH]c2c1` [Compound I-370, N2-(3-carboxamide-5-trifluoromethyl)phenyl-5-methyl-N4-(2-oxo-2,3-dihydro-1,3-benzoxazol-5-yl)-2,4-pyrimidinediamine] cannot be ordered by IC50: < 500 nM for the first, < 500 nM for the second.

First: COc1c(C(C)C)cc(Nc2ncc(C)c(Nc3ccc4oc(=O)[nH]c4c3)n2)cc1C(C)C [Compound I-371, N2-(3,5-diisopropyl-4-methoxy)phenyl-5-methyl-N4-(2-oxo-2,3-dihydro-1,3-benzoxazol-5-yl)-2,4-pyrimidinediamine]
Second: Cc1cnc(Nc2cc(OC(C)C)cc(C(F)(F)F)c2)nc1Nc1ccc2oc(=O)[nH]c2c1 [Compound I-372, N2-(3-isopropoxy-5-trifluoromethyl)phenyl-5-methyl-N4-(2-oxo-2,3-dihydro-1,3-benzoxazol-5-yl)-2,4-pyrimidinediamine]
The IC50 of the first is higher: 500 to 5000 nM for the first, < 500 nM for the second. The second is the more potent here.
